This test relates to L1210 leukemia ip in BDF1 mice, survival T/C. The experiment in a line: NCI In Vivo Anticancer Drug Screen. Data for tumor model L1210 Leukemia (intraperitoneal) in B6D2F1 (BDF1) mice. Conditions: higher = longer survival. In short, it runs like this:
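Each compound was tested against a transplantable tumor grown in mice. The endpoint was survival, with treated animals benchmarked against vehicle controls as a simple ratio.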

“And” between values parts separate entries of the source, which are not always exact repeats. Identical values can stand only once. Toxic doses and inconclusive results are not listed.

For `N#[N+]c1cnc([O-])[nH]c1=O`, the T/C (endpoint: mean survival time, dose: 0.31 mg/kg/injection, schedule: Q#A X Z (ip), vehicle: methylcellulose (MC)) is 103 % of control; the T/C (endpoint: mean survival time, dose: 0.6 mg/kg/injection, schedule: Q01DX Z (im), vehicle: saline) was 102 % of control; the T/C (endpoint: mean survival time, dose: 0.6 mg/kg/injection, schedule: Q01DX Z (ip), vehicle: saline) was 104 % of control; the T/C (endpoint: mean survival time, dose: 0.62 mg/kg/injection, schedule: Q#A X Z (ip), vehicle: methylcellulose (MC)) was 108 % of control; the T/C (endpoint: mean survival time, dose: 1.0 mg/kg/injection, schedule: Q01DX009 (ip), vehicle: saline) is 119 % of control; the T/C (endpoint: mean survival time, dose: 1.2 mg/kg/injection, schedule: Q01DX Z (ip), vehicle: saline) is 120 % of control. The T/C is 115 % of control (endpoint: mean survival time, dose: 1.75 mg/kg/injection, schedule: Q01DX Z (ip), vehicle: carboxymethylcellulose (CMC)); 103 % of control (endpoint: mean survival time, dose: 2.0 mg/kg/injection, schedule: Q01DX009 (sc), vehicle: carboxymethylcellulose (CMC)); 110 % of control (endpoint: mean survival time, dose: 2.5 mg/kg/injection, schedule: Q01DX006 (iv), vehicle: saline); 107 % of control (endpoint: mean survival time, dose: 2.5 mg/kg/injection, schedule: Q01DX010 (ip), vehicle: saline); 112 % of control (endpoint: mean survival time, dose: 2.5 mg/kg/injection, schedule: Q01DX Z (sc), vehicle: steriod suspending solution); 123 % of control (endpoint: mean survival time, dose: 3.75 mg/kg/injection, schedule: Q03DX Z (ip), vehicle: methylcellulose (MC)). For the same compound, the T/C was 100 % of control (endpoint: mean survival time, dose: 4.0 mg/kg/injection, schedule: Q01DX001 (sc), vehicle: carboxymethylcellulose (CMC)); 105 % of control (endpoint: mean survival time, dose: 4.0 mg/kg/injection, schedule: Q01DX009 (sc), vehicle: carboxymethylcellulose (CMC)); 120 % of control (endpoint: mean survival time, dose: 4.0 mg/kg/injection, schedule: Q## X008 (ip), vehicle: carboxymethylcellulose (CMC)); 119 % of control (endpoint: mean survival time, dose: 4.0 mg/kg/injection, schedule: Q## X016 (ip), vehicle: carboxymethylcellulose (CMC)); 118 % of control (endpoint: mean survival time, dose: 4.0 mg/kg/injection, schedule: Q## X024 (ip), vehicle: carboxymethylcellulose (CMC)); 115 % of control (endpoint: mean survival time, dose: 5.0 mg/kg/injection, schedule: Q01DX006 (iv), vehicle: saline). In addition, the T/C was 113 % of control and 118 % of control (endpoint: mean survival time, dose: 5.0 mg/kg/injection, schedule: Q01DX Z (ip), vehicle: saline); 124 % of control (endpoint: mean survival time, dose: 5.0 mg/kg/injection, schedule: Q04DX003 (ip), vehicle: Klucel (hydroxypropylcellulose) (HPC)); 104 % of control and 123 % of control (endpoint: mean survival time, dose: 5.0 mg/kg/injection, schedule: Q04DX003 (ip), vehicle: saline); 103 % of control (endpoint: mean survival time, dose: 8.0 mg/kg/injection, schedule: Q01DX001 (sc), vehicle: carboxymethylcellulose (CMC)); 165 % of control (endpoint: mean survival time, dose: 8.0 mg/kg/injection, schedule: Q01DX009 (ip), vehicle: carboxymethylcellulose (CMC)); 121 % of control (endpoint: mean survival time, dose: 8.0 mg/kg/injection, schedule: Q01DX009 (ip), vehicle: saline). Besides, the T/C runs as follows: (endpoint: mean survival time, dose: 8.0 mg/kg/injection, schedule: Q01DX009 (sc), vehicle: carboxymethylcellulose (CMC)) 107 % of control; (endpoint: mean survival time, dose: 8.0 mg/kg/injection, schedule: Q## X016 (ip), vehicle: carboxymethylcellulose (CMC)) 120 % of control; (endpoint: mean survival time, dose: 8.0 mg/kg/injection, schedule: Q## X024 (ip), vehicle: carboxymethylcellulose (CMC)) 120 % of control; (endpoint: mean survival time, dose: 8.75 mg/kg/injection, schedule: Q07DX Z (ip), vehicle: methylcellulose (MC)) 112 % of control; (endpoint: mean survival time, dose: 9.49 mg/kg/injection, schedule: Q01DX Z (oral), vehicle: carboxymethylcellulose (CMC)) 98 % of control; (endpoint: mean survival time, dose: 10.0 mg/kg/injection, schedule: Q01DX005 (ip), vehicle: Klucel (hydroxypropylcellulose) (HPC)) 157 % of control. Further, the T/C was 106 % of control and 108 % of control (endpoint: mean survival time, dose: 10.0 mg/kg/injection, schedule: Q01DX006 (iv), vehicle: saline); 155 % of control (endpoint: mean survival time, dose: 10.0 mg/kg/injection, schedule: Q01DX010 (ip), vehicle: saline); 118 % of control (endpoint: mean survival time, dose: 10.0 mg/kg/injection, schedule: Q01DX Z (im), vehicle: saline); 106 % of control (endpoint: mean survival time, dose: 10.0 mg/kg/injection, schedule: Q01DX Z (oral), vehicle: saline); 124 % of control (endpoint: mean survival time, dose: 10.0 mg/kg/injection, schedule: Q04DX003 (ip), vehicle: Klucel (hydroxypropylcellulose) (HPC)); 114 % of control (endpoint: mean survival time, dose: 10.0 mg/kg/injection, schedule: Q04DX003 (ip), vehicle: saline). The T/C (endpoint: mean survival time, dose: 14.2 mg/kg/injection, schedule: Q01DX Z (oral), vehicle: carboxymethylcellulose (CMC)) is 101 % of control; the T/C (endpoint: mean survival time, dose: 15.0 mg/kg/injection, schedule: Q01DX001 (ip), vehicle: saline) is 122 % of control and 91 % of control; the T/C (endpoint: mean survival time, dose: 15.0 mg/kg/injection, schedule: Q03DX Z (ip), vehicle: methylcellulose (MC)) is 152 % of control; the T/C (endpoint: mean survival time, dose: 16.0 mg/kg/injection, schedule: Q01DX001 (sc), vehicle: carboxymethylcellulose (CMC)) was 101 % of control; the T/C (endpoint: mean survival time, dose: 16.0 mg/kg/injection, schedule: Q01DX009 (sc), vehicle: carboxymethylcellulose (CMC)) is 124 % of control; the T/C (endpoint: mean survival time, dose: 16.0 mg/kg/injection, schedule: Q## X024 (ip), vehicle: carboxymethylcellulose (CMC)) was 115 % of control. The T/C (endpoint: mean survival time, dose: 17.5 mg/kg/injection, schedule: Q07DX Z (ip), vehicle: methylcellulose (MC)) was 124 % of control; the T/C (endpoint: mean survival time, dose: 20.0 mg/kg/injection, schedule: Q01DX006 (iv), vehicle: saline) is 102 % of control and 120 % of control; the T/C (endpoint: mean survival time, dose: 20.0 mg/kg/injection, schedule: Q01DX Z (oral), vehicle: saline) is 115 % of control; the T/C (endpoint: mean survival time, dose: 20.0 mg/kg/injection, schedule: Q04DX003 (ip), vehicle: saline) is 116 % of control and 119 % of control; the T/C (endpoint: mean survival time, dose: 21.3 mg/kg/injection, schedule: Q01DX Z (oral), vehicle: carboxymethylcellulose (CMC)) is 97 % of control; the T/C (endpoint: mean survival time, dose: 29.0 mg/kg/injection, schedule: Q01DX001 (ip), vehicle: alkali diluted with saline) was 153 % of control. Moreover, the T/C (endpoint: mean survival time, dose: 32.0 mg/kg/injection, schedule: Q01DX Z (oral), vehicle: carboxymethylcellulose (CMC)) is 104 % of control; the T/C (endpoint: mean survival time, dose: 32.0 mg/kg/injection, schedule: Q01DX Z (oral), vehicle: methylcellulose (MC)) was 95 % of control; the T/C (endpoint: mean survival time, dose: 40.0 mg/kg/injection, schedule: Q01DX006 (iv), vehicle: saline) is 113 % of control; the T/C (endpoint: mean survival time, dose: 40.0 mg/kg/injection, schedule: Q01DX009 (oral), vehicle: carboxymethylcellulose (CMC)) is 104 % of control; the T/C (endpoint: mean survival time, dose: 40.0 mg/kg/injection, schedule: Q01DX Z (oral), vehicle: saline) is 107 % of control and 116 % of control; the T/C (endpoint: mean survival time, dose: 80.0 mg/kg/injection, schedule: Q01DX009 (oral), vehicle: carboxymethylcellulose (CMC)) was 109 % of control. Further, the T/C reads like this: (endpoint: mean survival time, dose: 80.0 mg/kg/injection, schedule: Q01DX Z (oral), vehicle: saline) 106 % of control; (endpoint: mean survival time, dose: 160.0 mg/kg/injection, schedule: Q01DX001 (oral), vehicle: carboxymethylcellulose (CMC)) 104 % of control; (endpoint: mean survival time, dose: 240.0 mg/kg/injection, schedule: Q01DX001 (oral), vehicle: carboxymethylcellulose (CMC)) 102 % of control; (endpoint: median survival time, dose: 5.0 mg/kg/injection, schedule: Q01DX009 (ip), vehicle: saline) 164 % of control; (endpoint: median survival time, dose: 10.0 mg/kg/injection, schedule: Q01DX009 (ip), vehicle: saline) 172 % of control and 200 % of control.
With `COCC(CNO)OC(=O)c1ccc(N)cc1` (configuration not stated), the T/C is, setting by setting: (endpoint: mean survival time, dose: 55.0 mg/kg/injection, schedule: Q01DX Z (ip), vehicle: saline) 89 % of control; (endpoint: mean survival time, dose: 125.0 mg/kg/injection, schedule: Q01DX Z (ip), vehicle: saline) 100 % of control.
Consider `O=S(=O)(CCCCCl)Nc1ccc(NS(=O)(=O)CCCCCl)cc1`, for which the T/C by setting is: (endpoint: mean survival time, dose: 100.0 mg/kg/injection, schedule: Q01DX001 (ip), vehicle: saline with Tween-80) 102 % of control; (endpoint: mean survival time, dose: 100.0 mg/kg/injection, schedule: Q04DX003 (ip), vehicle: saline with Tween-80) 97 % of control; (endpoint: mean survival time, dose: 200.0 mg/kg/injection, schedule: Q01DX001 (ip), vehicle: saline with Tween-80) 92 % of control; (endpoint: mean survival time, dose: 200.0 mg/kg/injection, schedule: Q04DX003 (ip), vehicle: saline with Tween-80) 90 % of control; (endpoint: mean survival time, dose: 400.0 mg/kg/injection, schedule: Q01DX001 (ip), vehicle: saline with Tween-80) 92 % of control; (endpoint: mean survival time, dose: 400.0 mg/kg/injection, schedule: Q04DX003 (ip), vehicle: saline with Tween-80) 92 % of control.

These data come from PubChem BioAssay AID248 (DTP/NCI, 2004).
